pEC50: −log10 of the molar value.
Assays:
[1] = biological target: T1, PKCε (Homo sapiens, UniProt Q02156); assay: PKC assay with purified PKCε; type: biochemical
T1 construct: purchased Calbiochem
T1 sequence (Q02156 1-737): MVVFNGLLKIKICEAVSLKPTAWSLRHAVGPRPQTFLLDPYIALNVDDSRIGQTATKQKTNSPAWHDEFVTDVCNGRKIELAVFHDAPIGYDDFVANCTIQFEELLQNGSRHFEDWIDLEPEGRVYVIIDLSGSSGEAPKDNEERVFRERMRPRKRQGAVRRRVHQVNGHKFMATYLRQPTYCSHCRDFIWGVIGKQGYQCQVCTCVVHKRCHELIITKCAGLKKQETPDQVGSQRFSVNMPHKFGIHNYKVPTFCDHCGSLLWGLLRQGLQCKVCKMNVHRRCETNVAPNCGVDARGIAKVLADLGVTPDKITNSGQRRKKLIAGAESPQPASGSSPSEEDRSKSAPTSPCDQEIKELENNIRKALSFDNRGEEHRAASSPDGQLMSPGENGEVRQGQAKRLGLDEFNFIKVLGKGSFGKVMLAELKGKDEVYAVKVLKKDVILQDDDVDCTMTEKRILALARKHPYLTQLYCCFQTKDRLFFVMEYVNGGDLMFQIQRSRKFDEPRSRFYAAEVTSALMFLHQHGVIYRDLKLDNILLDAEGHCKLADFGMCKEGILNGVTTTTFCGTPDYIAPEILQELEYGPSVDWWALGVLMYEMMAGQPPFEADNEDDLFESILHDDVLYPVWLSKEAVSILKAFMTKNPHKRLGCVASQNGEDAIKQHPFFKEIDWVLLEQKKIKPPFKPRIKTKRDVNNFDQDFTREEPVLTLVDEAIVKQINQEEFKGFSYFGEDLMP
Description: PKC assay. […] 0.5 micro Ci[^γ32P]ATP was added. […] The reaction was stopped by spotting the reaction mixtures on 1×2 cm strips of cellulose phosphate paper (Whatman P81) and immediately washing twice for 1 hr in 0.5% H3PO4. The cellulose phosphate strips were counted in a scintillation counter. In some experiments, phosphatidylserine, diacylglycerol, and/or calcium were removed. […]
To determine their PKC isozyme specificity, fatty acid derivatives were preincubated with purified PKC for five minutes and the PKC activity was measured radiometrically.

[2] = tested on: SH-SY5Y neuroblastoma cells; assay: Cell survival and proliferation (alamar Blue, CyQuant); type: cell-based, human; conditions: alamar Blue and CyQuant staining
Description: (§1) Aβ Measurement and Cell Viability Assay. Aβ was measured using an Aβ 1-42 human fluorimetric ELISA kit (Invitrogen) according to the manufacturer's instructions. Results were measured in a Biotek Synergy HT microplate reader. AlamarBlue and CyQuant NF (Invitrogen) according to the manufacturer's instructions.

[3] = tested on: TACE; assay: TACE activity in neuronal cells; type: cell-based, human, mouse; conditions: SH-SY5Y cells, N2a cells, primary neurons from rat hippocampus
Description: TACE Assay. TACE was measured by incubating 5 μl cell homogenate, 3 μl buffer (50 mM Tris-HCl 7.4 plus 25 mM NaCl plus 4% glycerol), and 1 μl of 100 μM TACE substrate (Aβz-[…]-DPa) (Calbiochem) for 20 min at 37° C. 1.5-ml polypropylene centrifuge tubes. Jin et al., Anal. Biochem. (2002), vol. 302, pp. 269-275. The reaction was stopped by cooling to 4° C. The samples were diluted to 1 ml and the fluorescence was rapidly measured (ex=320 nm, em=420 nm) in a Spex Fluorolog 2 spectrofluorometer.

[4] = tested on: Aβ; assay: Aβ production in N2a neuroblastoma cells transfected with human APPSwe/PSID; type: cell-based, mouse; conditions: 24 hours
Description: (§2) Cell culture. Rat hippocampal H19-7/IGF-IR cells (ATCC, Manassas, Va.) were plated onto poly-L-lysine coated plates and grown at 35° C. in DMEM/10% FCS for several days until about 50% coverage was obtained. The cells were then induced to differentiate into a neuronal phenotype by replacing the medium with 5 ml N2 medium containing 10 ng/ml basic fibroblast growth factor at 39° C. and grown in T-75 flasks at 37° C. Human SH-SY5Y neuroblastoma cells (ATCC) were cultured in 45% F12K/45% MEM/10% FCS. Mouse N2A neuroblastoma cells were cultured in DMEM/10% FCS without glutamine. Rat hippocampal neurons from 18-day-old embryonic Sprague Dawley rat brains were plated on 12- or 96-well plates coated with poly-D-lysine (Sigma-Aldrich, St. Louis, Mo.) in B-27 neurobasal medium containing 0.5 mM glutamine and 25 μM glutamate (Invitrogen, Carlsbad, Calif.) and cultured for three days in the medium without glutamate. The neuronal cells were grown under 5% CO2 in an incubator maintained at 37° C. for 14 days.
as §1
To measure the effects of PKCε activation on Aβ production, mouse neuro2a (N2a) neuroblastoma cells transfected with human APPSwe/PSID were used, which produce large quantities of Aβ. Petanceska et al., J. Neurochem. (1996), vol. 74, pp. 1878-1884. […] With bryostatin, which activates PKC by binding to the diacylglycerol-binding site, the inhibition was biphasic with concentrations of 20 nM or higher producing no net effect. This may be explained by the ability of this class of PKC activators to downregulate PKC when used at high concentrations.

[5] = tested on: Aβ; assay: Degradation of exogenously applied Aβ in SH-SY5Y cells; type: cell-based, human; conditions: 0.01 μM to 10 μM; 100 nM exogenous Aβ-42; 24 hours
Description: as §2, §1
This concentration of Aβ is too low to produce measurable toxicity or cell death. […]

[6] = tested on: Endothelin-converting enzyme (ECE); assay: Endothelin-converting enzyme (ECE) activity in neuroblastoma cells; type: cell-based, human; conditions: bryostatin 0.27 nM, BR-101 1 μM, BR-111 1 μM
Description: ECE assay. […] neuroblastoma cells were incubated with bryostatin (0.27 nM), BR-101 (DCP-LA) (1 μM), and BR-111 (DHA-CP6) (1 μM). Endothelin-converting enzyme (ECE) was measured fluorimetrically using the method of Johnson and Ahn (Anal. Biochem. (2000), vol. 286, pp. 112-118). A sample of cell homogenate (20 μl) was incubated in 50 mM MES-KOH, pH 6.0, 0.01% C12E10 (polyoxyethylene-10-lauryl ether), and 15 μM McaBK2 (7-Methoxycoumarin-4-acetyl [Ala7-(2,4-Dinitrophenyl)Lys9]-bradykinin trifluoroacetate salt) (Sigma-Aldrich). After 60 min at 37° C., the reaction was quenched by adding trifluoroacetic acid to 0.5%. The sample was diluted to 1.4 ml with water and the fluorescence was measured at ex=334 nm, em=398 nm.

[7] = biological target: protein kinase C; conditions: (−)-enantiomer; read-out: potency (EC50); cited from earlier work

| SMILES | concentration needed to activate PKC, times lower than for BR-101 (DCP-LA) [1] | effect on purified PKCε (FIG. 7, FIG. 8) ([1]; preincubated five minutes, radiometric) | effect on cell survival [2] | effect on proliferation [2] | TACE activity [3] | levels of intracellular Aβ ([4]; various concentrations) | levels of secreted Aβ ([4]; various concentrations) | concentration dependence of Aβ inhibition ([4]; fatty acid derivatives up to 10 μM to 100 μM) | reduction of cellular levels of Aβ [5] | ECE activity [6] | pEC50 [7] |
| --- | --- | --- | --- | --- | --- | --- | --- | --- | --- | --- | --- |
| CCC1CC1CC1CC1CC1CC1CC1CC1CC1CC1CC1CC1CCC(=O)OC (centres unmarked) [BR-111, methyl-3-(2-((2-((2-((2-((2-((2-ethylcyclopropyl)methyl)cyclopropyl)methyl)cyclopropyl)methyl)-cyclopropyl)methyl)cyclopropyl)methyl)cyclopropyl)propanoate] | approximately 100 times | activated | no effect | no effect | small increases | markedly reduced | markedly reduced | monotonically increasing inhibition | 45%-63% | sustained increase |  |
| CCCCCCCCc1ccc2c3c(c[nH]c13)C[C@@H](CO)NC(=O)[C@H](C(C)C)N2C [Octylindolactam V] |  |  |  |  |  |  |  |  |  |  | 7.54 |

— patent publication US20120027687A1, “FATTY ACID PROTEIN KINASE C ACTIVATORS AND ANTICOAGULANT FOR THE TREATMENT OF STROKE” (priority 2010, published 2012)
